Experimental data published in patent US10669272B2, “Substituted naphthyridinone compounds useful as T cell activators” (BRISTOL-MYERS SQUIBB COMPANY, priority 2018, dated 2020).
Structures can show the parent of a compound that is named as a salt. Where two headings read alike, the source gives them in different places.

Columns and labels:
[1] = biological target: T1, human DGKζ (Homo sapiens, UniProt Q13574); assay: DGKζ LIPGLO assay (extruded liposome substrate), in vitro DGK inhibition; type: biochemical; conditions: read-out: DGKz LIPGLO IC50
T1 construct: TVMV protease cleavage site (C); Hexa-His (C); made in house; host or cells: Sf9 insect cells (baculovirus, Bac-to-Bac)
T1 sequence (Q13574 with tags, fused parts or gaps isoform Q13574-4): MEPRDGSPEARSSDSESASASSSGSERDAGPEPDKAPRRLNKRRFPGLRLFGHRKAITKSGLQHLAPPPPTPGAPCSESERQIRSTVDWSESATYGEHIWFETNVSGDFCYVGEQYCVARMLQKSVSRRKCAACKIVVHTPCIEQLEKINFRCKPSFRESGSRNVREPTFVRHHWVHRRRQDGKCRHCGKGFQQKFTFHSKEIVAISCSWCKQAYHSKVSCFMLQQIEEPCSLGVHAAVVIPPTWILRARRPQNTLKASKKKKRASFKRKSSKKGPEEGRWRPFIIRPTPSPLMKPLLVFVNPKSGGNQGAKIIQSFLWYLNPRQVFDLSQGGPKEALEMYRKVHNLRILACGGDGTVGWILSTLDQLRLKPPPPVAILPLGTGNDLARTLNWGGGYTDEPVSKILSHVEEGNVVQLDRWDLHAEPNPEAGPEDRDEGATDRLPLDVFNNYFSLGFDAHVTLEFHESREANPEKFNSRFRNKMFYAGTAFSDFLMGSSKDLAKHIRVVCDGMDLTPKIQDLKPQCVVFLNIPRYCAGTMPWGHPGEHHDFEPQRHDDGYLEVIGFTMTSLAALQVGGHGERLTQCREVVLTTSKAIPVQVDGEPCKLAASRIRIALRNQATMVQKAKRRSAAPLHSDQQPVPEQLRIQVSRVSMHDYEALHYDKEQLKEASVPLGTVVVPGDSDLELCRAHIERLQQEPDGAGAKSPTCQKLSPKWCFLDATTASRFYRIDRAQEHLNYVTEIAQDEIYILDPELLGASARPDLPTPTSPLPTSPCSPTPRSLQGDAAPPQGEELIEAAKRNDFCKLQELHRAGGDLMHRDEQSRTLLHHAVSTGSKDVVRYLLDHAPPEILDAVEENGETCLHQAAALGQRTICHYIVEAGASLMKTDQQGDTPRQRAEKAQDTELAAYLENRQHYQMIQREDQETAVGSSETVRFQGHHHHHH

[2] = biological target: T2, human DGKα (Homo sapiens, UniProt P23743); assay: DGKα LIPGLO assay (extruded liposome substrate), in vitro DGK inhibition; type: biochemical; conditions: read-out: DGKa LIPGLO IC50
T2 construct: TVMV protease cleavage site (C); Hexa-His (C); made in house; host or cells: Sf9 insect cells (baculovirus, Bac-to-Bac)
T2 sequence (P23743 with tags, fused parts or gaps): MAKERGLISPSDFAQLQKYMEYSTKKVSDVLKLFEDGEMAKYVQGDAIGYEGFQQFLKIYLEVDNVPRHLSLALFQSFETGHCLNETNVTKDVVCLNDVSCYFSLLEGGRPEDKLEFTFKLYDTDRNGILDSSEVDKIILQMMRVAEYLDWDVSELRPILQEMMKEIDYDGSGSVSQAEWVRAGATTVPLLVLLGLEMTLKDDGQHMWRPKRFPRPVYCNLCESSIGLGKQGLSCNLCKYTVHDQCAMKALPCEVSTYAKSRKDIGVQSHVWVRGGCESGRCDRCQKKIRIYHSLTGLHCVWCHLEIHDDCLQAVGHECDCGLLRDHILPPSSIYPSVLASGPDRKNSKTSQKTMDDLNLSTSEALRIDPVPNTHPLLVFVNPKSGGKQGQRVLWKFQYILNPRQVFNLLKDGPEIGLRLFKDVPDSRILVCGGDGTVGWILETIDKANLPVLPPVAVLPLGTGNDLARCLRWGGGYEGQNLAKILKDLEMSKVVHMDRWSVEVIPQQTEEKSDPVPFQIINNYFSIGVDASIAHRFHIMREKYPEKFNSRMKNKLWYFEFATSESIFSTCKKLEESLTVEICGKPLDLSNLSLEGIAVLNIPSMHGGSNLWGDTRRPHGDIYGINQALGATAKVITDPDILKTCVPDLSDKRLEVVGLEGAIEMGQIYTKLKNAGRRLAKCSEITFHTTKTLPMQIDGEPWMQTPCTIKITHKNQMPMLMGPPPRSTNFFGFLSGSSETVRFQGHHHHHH

[3] = system: Human venous whole blood; assay: Human whole blood IFN-γ assay; type: cell-based; conditions: human whole blood, read-out: INFg Whole Blood Normalized Agonist EC50;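 further: blood from healthy donors exposed to compound for 1 h before stimulation with anti-CD3 and anti-CD28 at 1 µg/mL each, IFN-γ quantified in supernatant by AlphaLISA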
Procedure: Human Whole Blood IFN-γ Assay
Human venous whole blood (22.5 μL per well), obtained from healthy donors, was pre-treated with compounds for one hour at 37° C. in a humidified 95% air/5% CO2 incubator. The blood was stimulated with 2.5 μL anti-human CD3 and anti-CD28 mAb at a final concentration of 1 μg/mL each for 24 hours at 37° C. IFN-γ in the supernatants was measured using AlphLISA kit (Cat # AL217).

[4] = normalized to 3 μM reference compound with anti-CD3 plus anti-CD28 as 100% activation
[5] = anti-CD3 plus anti-CD28, 24 hours, 3 μM reference compound = 100% activation
[6] = Homo sapiens, 24 h, anti-CD3 plus anti-CD28, 24 hours, 3 μM reference compound = 100% activation
[7] = Homo sapiens, 24 h, normalized to 3 μM reference compound with anti-CD3 plus anti-CD28 as 100% activation

Row | Structure (SMILES) | IC50 ([1]; liposome (LIPGLO) assay) [µM] | IC50 ([2]; liposome (LIPGLO) assay) [µM] | EC50 [3, 4] [µM] | IC50 ([1]; DGKζ liposome (LIPGLO) assay) [µM] | IC50 ([2]; DGKα liposome (LIPGLO) assay) [µM] | EC50 [3, 5] [µM] | EC50 [3, 6] [µM] | EC50 [3, 7] [µM]
1 | C[C@@H]1CN(c2cc(=O)n(C)c3ccc(C#N)nc23)[C@@H](C)CN1C(c1ccc(Cl)cc1)c1ccccn1 (single isomer, unassigned) [Example 382] | 2.5 | 0.22 | 2.6 |  |  |  |  | 
2 | CC(C)c1nnc(C(c2ccc(F)cc2)N2C[C@H](C)N(c3cc(=O)n(C)c4ccc(C#N)nc34)C[C@H]2C)s1 (single isomer, unassigned) [Example 772] |  |  |  | 0.027 | 0.0047 | 1.4 |  | 
3 | COCC(c1ccc(C(F)(F)F)cn1)N1C[C@H](C)N(c2cc(=O)n(C)c3ccc(C#N)nc23)C[C@H]1C (single isomer, unassigned) [Example 1278] | 0.4 | 0.22 | 2 |  |  |  |  | 
4 | C[C@@H]1CN(c2c(C#N)c(=O)n(C)c3ccc(C#N)nc23)[C@@H](C)CN1C(c1ccc(F)cc1)c1ccc(F)cn1 (stereo partly drawn) [Example 828] |  |  |  | 16 | 4.2 | 2.7 |  | 
5 | C[C@@H]1CN(c2c(C#N)c(=O)n(C)c3ccc(C#N)nc23)CCN1Cc1cccc(C#N)n1 [Example 989] |  |  |  | 32 | 5.2 |  | 20 | 
6 | CC(c1ccc(F)cn1)N1C[C@H](C)N(c2cc(=O)n(C)c3ccc(C#N)nc23)C[C@H]1C (single isomer, unassigned) [Example 641] | 15 | 1.7 | 5.9 |  |  |  |  | 
7 | CC(c1ccc(OC(F)(F)F)cc1)N1C[C@H](C)N(c2cc(=O)n(C)c3ccc(C#N)nc23)C[C@H]1CO (single isomer, unassigned) [Example 1387] | 12 | 2.6 | 20 |  |  |  |  | 
8 | C[C@@H]1CN(c2c(C#N)c(=O)n(C)c3ccc(C#N)nc23)CCN1Cc1ccc(Cl)c(Cl)c1 [Example 996] |  |  |  | 5.8 | 4.1 |  | 20 | 
9 | CC(c1ccc(OC(F)(F)F)cc1)N1C[C@H](C)N(c2cc(=O)n(C)c3ccc(C#N)nc23)C[C@H]1CC#N (single isomer, unassigned) [Example 1412] | 1.7 | 0.29 |  |  |  |  |  | 1.6
10 | CC(C)Oc1ccc(C(C)N2C[C@H](C)N(c3cc(=O)n(C)c4ccc(C#N)nc34)C[C@H]2C)cn1 (single isomer, unassigned) [Example 1325] | 0.91 | 1.3 | 1.8 |  |  |  |  | 
11 | C[C@@H]1CN(c2cc(=O)n(C)c3ccc(C#N)nc23)[C@@H](C)CN1Cc1ccc(Cl)cc1 [Example 604] | 2 | 0.31 |  |  |  |  |  | 4.8
12 | C[C@@H]1CN(c2cc(=O)n(C)c3ccc(C#N)nc23)[C@@H](C)CN1C(c1ccc(F)cc1)c1ccnc(C(C)(C)C)n1 (single isomer, unassigned) [Example 408] | 0.8 | 7.5 |  |  |  |  |  | 0.8
13 | C[C@@H]1CN(c2c(C#N)c(=O)n(C)c3ccc(C#N)nc23)CCN1C(c1ccc(F)cc1)c1ccc(C#N)cn1 (single isomer, unassigned) [Example 924] |  |  |  | 10 | 3.2 | 4 |  | 
14 | C[C@@H]1CN(c2cc(=O)n(C)c3ccc(C#N)nc23)[C@@H](C)CN1Cc1ccc(OC(F)(F)F)cc1Cl [Example 607] | 7.6 | 1.9 |  |  |  |  |  | 2
15 | COC(=O)c1cccc(C(C)N2CCN(c3c(C#N)c(=O)n(C)c4ccc(C#N)nc34)C[C@H]2C)c1 (single isomer, unassigned) [Example 982] |  |  |  | 1.7 | 8.1 |  | 20 | 
16 | C[C@@H]1CN(c2cc(=O)n(C)c3ccc(C#N)nc23)[C@@H](C)CN1Cc1cc(F)c(F)c(F)c1 [Example 1235] | 0.63 | 1.1 |  |  |  |  |  | 3.3
17 | Cc1ccc(C(c2ccc(C#N)cc2)N2C[C@H](C)N(c3cc(=O)n(C)c4ccc(C#N)nc34)C[C@H]2C)cc1 (single isomer, unassigned) [Example 310, TFA salt] | 1.6 | 1.3 |  |  |  |  |  | 1.9

Row | Structure (SMILES) | IC50 ([1]; liposome (LIPGLO) assay) [µM] | IC50 ([2]; liposome (LIPGLO) assay) [µM] | EC50 [3, 4] [µM] | IC50 ([1]; DGKζ liposome (LIPGLO) assay) [µM] | IC50 ([2]; DGKα liposome (LIPGLO) assay) [µM] | EC50 [3, 5] [µM] | EC50 [3, 6] [µM] | EC50 [3, 7] [µM]
18 | CC(c1ccc(OC(F)F)cn1)N1C[C@H](C)N(c2cc(=O)n(C)c3ccc(C#N)nc23)C[C@H]1C (single isomer, unassigned) [Example 1224] | 1.4 | 0.041 | 1.8 |  |  |  |  | 
19 | C[C@@H]1CN(c2cc(=O)n(C)c3ccc(C#N)nc23)[C@@H](C)CN1C(c1ccc(F)cc1)c1nc(N2CCOCC2)no1 (stereo partly drawn) [Example 749] |  |  |  | 0.58 | 0.67 | 1.2 |  | 
20 | C[C@@H]1CN(c2c(C#N)c(=O)n(C)c3ccc(C#N)nc23)[C@@H](C)CN1C(c1ccc(F)cc1)c1ccc(C#N)cc1 (single isomer, unassigned) [Example 824] |  |  |  | 11 | 16 | 3.2 |  | 
21 | Cc1ccc(C(c2cccc(F)c2)N2C[C@H](C)N(c3cc(=O)n(C)c4ccc(C#N)nc34)C[C@H]2CO)nc1 (stereo partly drawn) [Example 1154] | 50 | 8.1 |  |  |  |  |  | 2.4
22 | CC[C@@H]1CN(c2cc(=O)n(C)c3ccc(C#N)nc23)[C@@H](C)CN1C(c1ccc(Cl)cc1)c1ccccn1 (single isomer, unassigned) [Example 423] | 0.17 | 0.027 | 0.74 |  |  |  |  | 
23 | C[C@@H]1CN(c2cc(=O)n(C)c3ccc(C#N)nc23)[C@@H](C)CN1C(c1ccc(F)cc1)c1c(F)cc(F)cc1F (single isomer, unassigned) [Example 693] | 0.57 | 2.2 | 0.29 |  |  |  |  | 
24 | [2H]C(CC)(c1ccc(F)cc1)N1C[C@H](C)N(c2cc(=O)n(C)c3ccc(C#N)nc23)C[C@H]1C (single isomer, unassigned) [Example 575] | 1.6 | 0.18 | 0.36 |  |  |  |  | 
25 | CC[C@H]1CN(C(c2ccc(Cl)cc2)c2ccc(F)cn2)[C@H](C)CN1c1cc(=O)n(C)c2ccc(C#N)nc12 (single isomer, unassigned) [Example 1129] | 1.8 | 0.11 |  |  |  |  |  | 0.41
26 | CC(C)c1ccc(CN2C[C@H](C)N(c3cc(=O)n(C)c4ccc(C#N)nc34)C[C@H]2C)cc1 [Example 602] | 3.7 | 0.85 |  |  |  |  |  | 1.1
27 | C[C@@H]1CN(c2cc(=O)n(C)c3ccc(C#N)nc23)[C@@H](C)CN1C(c1ccc(F)cn1)c1ccc(F)cc1F (single isomer, unassigned) [Example 684] | 0.49 | 0.0069 | 0.35 |  |  |  |  | 
28 | CCC(c1cc(OC(F)(F)F)ccc1F)N1C[C@H](CC)N(c2cc(=O)n(C)c3ccc(C#N)nc23)C[C@H]1C (single isomer, unassigned) [Example 1380] | 0.18 | 0.85 | 0.47 |  |  |  |  | 
29 | CC(c1ccc(OC(F)(F)F)cc1)N1CCN(c2c(C#N)c(=O)n(C)c3ccc(C#N)nc23)C[C@H]1C (single isomer, unassigned) [Example 958] |  |  |  | 28 | 0.49 |  | 20 | 
30 | CC(c1ccc(OC(F)(F)F)cc1)N1C[C@H](C)N(c2cc(=O)n(C)c3ccc(C#N)nc23)C[C@H]1C (single isomer, unassigned) [Example 436] | 0.81 | 0.065 | 0.44 |  |  |  |  | 
31 | COCCOC[C@@H]1CN(c2cc(=O)n(C)c3ccc(C#N)nc23)[C@@H](C)CN1C(C)c1ccc(OC(F)(F)F)cc1 (single isomer, unassigned) [Example 1405] | 0.057 | 0.96 |  |  |  |  |  | 0.48
32 | C[C@@H]1CN(c2cc(=O)n(C)c3ccc(C#N)nc23)[C@@H](C)CN1C(c1ccc(F)cc1)c1nccn1C (stereo partly drawn) [Example 713] | 51 | 6.6 | 13 |  |  |  |  | 
33 | Cc1cc(C(C)N2C[C@H](C)N(c3c(C#N)c(=O)n(C)c4ccc(C#N)nc34)C[C@H]2C)no1 (single isomer, unassigned) [Example 803] |  |  |  | 7 | 2 |  | 20 | 
34 | C[C@@H]1CN(c2cc(=O)n(C)c3ccc(C#N)nc23)[C@@H](C)CN1Cc1nnnn1C1CC1 [Example 1423] | 44 | 50 |  |  |  |  |  | 20
